Measured values from paper PMC7747014 (Journal of medicinal chemistry, 2015).
Entries after “also recorded” stand apart in the source; their conditions may differ. Where two headings read alike, the source gives them in different places.

Key:
[1] = target: T1, Human recombinant Top1 (Homo sapiens, UniProt P11387); assay: Top1-mediated DNA cleavage assay; format: biochemical; conditions: for trapping of Top1 cleavage complexes at low concentration: 5 nM, dose-dependent gel (Figure 8)
T1 sequence (P11387 1-765): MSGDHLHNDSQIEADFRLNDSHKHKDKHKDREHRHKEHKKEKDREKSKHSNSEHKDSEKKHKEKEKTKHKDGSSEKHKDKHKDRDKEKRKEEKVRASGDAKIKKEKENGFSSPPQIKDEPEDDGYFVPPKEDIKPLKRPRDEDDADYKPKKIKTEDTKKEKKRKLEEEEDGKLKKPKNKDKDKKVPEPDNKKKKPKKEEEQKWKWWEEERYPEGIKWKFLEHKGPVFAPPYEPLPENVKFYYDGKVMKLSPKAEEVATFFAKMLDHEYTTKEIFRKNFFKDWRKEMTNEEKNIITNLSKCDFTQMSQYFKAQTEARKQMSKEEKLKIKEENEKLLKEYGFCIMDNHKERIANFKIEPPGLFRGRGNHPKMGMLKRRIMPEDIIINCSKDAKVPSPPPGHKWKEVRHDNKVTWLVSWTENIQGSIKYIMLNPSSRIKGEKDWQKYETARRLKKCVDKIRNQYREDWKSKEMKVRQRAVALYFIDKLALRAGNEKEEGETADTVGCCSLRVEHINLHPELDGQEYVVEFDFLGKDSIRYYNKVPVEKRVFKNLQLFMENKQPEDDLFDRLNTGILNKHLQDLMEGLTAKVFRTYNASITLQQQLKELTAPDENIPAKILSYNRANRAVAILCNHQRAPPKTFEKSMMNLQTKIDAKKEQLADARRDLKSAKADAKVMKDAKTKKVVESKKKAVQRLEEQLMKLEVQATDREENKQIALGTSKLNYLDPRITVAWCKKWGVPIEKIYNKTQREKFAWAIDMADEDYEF

[2] = target: T2, drug−Top1−DNA cleavage complexes (Homo sapiens, UniProt P11387); assay: Kinetics of reversal assay of Top1-mediated DNA cleavage complexes; format: biochemical; conditions: for reversal of ternary cleavage complexes: common cleavage sites 70, 92, 97 and 119, forward reaction terminated with 0.35 M NaCl
T2 sequence (P11387 1-765): T1 sequence (P11387 1-765)

[3] = target: T1, Human recombinant Top1; conditions: graded relative to 1 μM camptothecin; cited from earlier work
[4] = test system: lung HOP-62; conditions: read-out: cytotoxicity (GI50 in μM) lung HOP-62; cited from earlier work
[5] = test system: CNS SF-539; conditions: read-out: cytotoxicity (GI50 in μM) CNS SF-539; cited from earlier work
[6] = test system: melanoma UACC-62; conditions: read-out: cytotoxicity (GI50 in μM) melanoma UACC-62; cited from earlier work
[7] = test system: prostate DU-145; conditions: read-out: cytotoxicity (GI50 in μM) prostate DU-145; cited from earlier work
[8] = test system: breast MCF7; conditions: read-out: cytotoxicity (GI50 in μM) breast MCF7; cited from earlier work
[9] = target: T3, recombinant TDP1 (Homo sapiens, UniProt Q9NUW8); conditions: read-out: TDP1 inhibition; semiquantitative IC50 scale; cited from earlier work
T3 sequence (Q9NUW8 whole entry): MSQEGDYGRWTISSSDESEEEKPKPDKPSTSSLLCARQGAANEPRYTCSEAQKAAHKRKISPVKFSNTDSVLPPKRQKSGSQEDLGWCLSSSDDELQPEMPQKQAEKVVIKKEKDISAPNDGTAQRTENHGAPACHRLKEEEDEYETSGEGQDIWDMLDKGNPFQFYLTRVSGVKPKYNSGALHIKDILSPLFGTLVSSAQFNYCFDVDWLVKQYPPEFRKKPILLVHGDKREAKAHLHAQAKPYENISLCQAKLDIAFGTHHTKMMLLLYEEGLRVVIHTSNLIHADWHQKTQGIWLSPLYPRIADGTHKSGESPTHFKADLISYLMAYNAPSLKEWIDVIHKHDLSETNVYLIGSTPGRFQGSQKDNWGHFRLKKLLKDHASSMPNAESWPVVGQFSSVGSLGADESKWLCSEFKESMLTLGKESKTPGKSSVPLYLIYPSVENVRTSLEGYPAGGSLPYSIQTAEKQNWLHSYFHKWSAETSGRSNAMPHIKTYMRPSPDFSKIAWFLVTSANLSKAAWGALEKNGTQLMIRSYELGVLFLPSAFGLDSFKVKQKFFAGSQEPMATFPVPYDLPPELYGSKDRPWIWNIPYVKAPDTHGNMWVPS

[10] = test system: 60 common human cancer cell lines (NCI-60); conditions: read-out: MGM; average GI50 across 60 cell lines; cited from earlier work
[11] = test system: colon HCT-116; conditions: read-out: cytotoxicity (GI50 in μM) colon HCT-116; cited from earlier work
[12] = test system: ovarian OVACAR-3; conditions: read-out: cytotoxicity (GI50 in μM) ovarian OVACAR-3; cited from earlier work
[13] = test system: renal SN12C; conditions: read-out: cytotoxicity (GI50 in μM) renal SN12C; cited from earlier work
[14] = target: T3, recombinant TDP1; assay: Gel-based assay measuring the inhibition of recombinant TDP1; format: biochemical; conditions: read-out: TDP1 inhibition; semiquantitative IC50 scale

| Top1 cleavage ([1]; graded relative to 1 μM camptothecin) | IC50 [14] [nM] | Structure (SMILES) | trapping of Top1 cleavage complexes at low concentration [1] | reversal of ternary cleavage complexes [2] | Top1 cleavage [3] | GI50 [4] [µM] | GI50 [5] [µM] | GI50 [6] [µM] | GI50 [7] [µM] | GI50 [8] [µM] | IC50 [9] [nM] | GI50 [10] [nM] | GI50 [11] [µM] | GI50 [12] [µM] | GI50 [13] [µM] | DNA alkylation / irreversible ternary cleavage complex ([2]; from decrease of cleavage bands over time) |
| --- | --- | --- | --- | --- | --- | --- | --- | --- | --- | --- | --- | --- | --- | --- | --- | --- |
| – | – | CC[C@@]1(O)C(=O)OCc2c1cc1n(c2=O)Cc2cc3ccccc3nc2-1 [Compound 1, camptothecin] | lesser activity at that concentration | reversed much faster | ++++ | < 0.01 | < 0.01 | < 0.01 | < 0.01 | < 0.01 | – | – | – | – | – | – |
| – | – | COc1cc2c(cc1O)-c1c(c3cc(OC)c(OC)cc3c(=O)n1CCCN1CCOCC1)C2=O [Compound 8] | – | – | – | 0.18 | 0.28 | 0.07 | 0.2 | 0.03 | 37000 to 111000 | 3100 ± 300 | 2.3 | 8.3 | 0.19 | – |
| +++++ | 37000 to 111000 | O=C1c2cc(O)ccc2-c2c1c1ccc([N+](=O)[O-])cc1c(=O)n2CCCBr [Compound 68, 6-(3-Bromopropyl)-9-hydroxy-3-nitro-5H-indeno[1,2-c]-isoquinoline-5,11(6H)-dione] | trapped Top1 cleavage complexes at a concentration as low as 5 nM | quite persistent but did reverse over time; also recorded: reversed slower than that of camptothecin | – | – | – | – | – | – | – | – | – | – | – | did not alkylate or form an irreversible ternary cleavage complex; also recorded: no evidence of DNA alkylation |
